In patent US20130184251A1, “HETEROAROMATIC AND AROMATIC PIPERAZINYL AZETIDINYL AMIDES AS MONOACYLGLYCEROL LIPASE INHIBITORS” (Janssen Pharmaceutica, NV, priority 2009, published 2013):
Where two headings read alike, the source gives them in different places.

Test system: HeLa cells
Assay: 2-AG accumulation assay using HeLa cells
Format: cell-based
Details: for Ex. 5 % MAFP @ 1 μM: 1 μM compound; for Ex. 5 % MAFP @ 1 μM / Ex. 5 % MAFP @10 μM: 2-AG relative to MAFP, HeLa homogenate; for Ex. 5 % MAFP @10 μM: 10 μM compound; for Emax at 10 µM: Homo sapiens
[1] = HeLa cell homogenate, 2-AG accumulation relative to MAFP, compound @10 μM (second of two columns with the same head), read-out: Ex. 5 % MAFP @10 μM (second column)
[2] = HeLa cell homogenate, 2-AG accumulation relative to MAFP, compound @10 μM as printed (first of two columns with the same head), read-out: Ex. 5 % MAFP @10 μM (first column)

Compound	Emax at 10 µM [1]	also measured
CC(C)(C)c1nc2ccc(C(=O)N3CC(N4CCN(c5ccccn5)CC4)C3)cc2o1 [Compound #209]		Ex. 5 % MAFP @ 1 μM: 19.9 % MAFP; Ex. 5 % MAFP @10 μM: 47.3 % MAFP
CN(c1ccc(C(=O)N2CC(N3CCN(c4ccccn4)CC3)C2)cc1)C1CCCCC1 [Compound #1, N-Cyclohexyl-N-methyl-4-{[3-(4-pyridin-2-ylpiperazin-1-yl)azetidin-1-yl]carbonyl}aniline]	70.5%	
O=C(c1ccc(-c2ccc(Cl)c(Cl)c2)cc1)N1CC(N2CCN(c3ncccn3)CC2)C1 [compound 11, 2-(4-{1-[(3′,4′-Dichlorobiphenyl-4-yl)carbonyl]azetidin-3-yl}piperazin-1-yl)pyrimidine]	55.2%	
O=C(c1ccc(Cc2ccccc2)cc1)N1CC(N2CCN(c3ccccn3)CC2)C1 [compound 30, 1-{1-[(4-Benzylphenyl)carbonyl]azetidin-3-yl}-4-pyridin-2-ylpiperazine]	37.3%	Emax at 10 µM [2]: 34.7%
O=C(c1ccc(-c2ccc(F)cc2)cc1)N1CC(N2CCN(c3ncccn3)CC2)C1 [compound 9, 2-(4-{1-[(4′-Fluorobiphenyl-4-yl)carbonyl]azetidin-3-yl}piperazin-1-yl)pyrimidine]	81%	
O=C(c1ccc(-c2ccccc2)c(F)c1)N1CC(N2CCN(c3ccccn3)CC2)C1 [compound 60, 1-{1-[(2-Fluorobiphenyl-4-yl)carbonyl]azetidin-3-yl}-4-pyridin-2-ylpiperazine]	57.8%	Emax at 10 µM [2]: 28.2%
O=C(c1ccc(C2CCCCC2)cc1)N1CC(N2CCN(c3noc4ccccc34)CC2)C1 [compound 33, 3-(4-{1-[(4-Cyclohexylphenyl)carbonyl]azetidin-3-yl}piperazin-1-yl)-1,2-benzisoxazole]	33%	Emax at 10 µM [2]: 17.5%
CCCc1cc2cc(C(=O)N3CC(N4CCN(c5ccccn5)CC4)C3)ccc2n1C [Compound #213]		Ex. 5 % MAFP @10 μM: 61.1 % MAFP
COc1cccc(-c2nc3cc(C(=O)N4CC(N5CCN(c6ccccn6)CC5)C4)ccc3o2)c1 [Compound #216]		Ex. 5 % MAFP @10 μM: 86.9 % MAFP
O=C(c1ccccc1)c1cccc(C(=O)N2CC(N3CCN(c4ccccn4)CC3)C2)c1 [compound 86, Phenyl(3-{[3-(4-pyridin-2-ylpiperazin-1-yl)azetidin-1-yl]carbonyl}phenyl)methanone]	10.4%	
O=C(c1cccc2c1Cc1ccccc1-2)N1CC(N2CCN(c3ccccn3)CC2)C1 [compound 96, 1-[1-(9H-Fluoren-1-ylcarbonyl)azetidin-3-yl]-4-pyridin-2-ylpiperazine]	0%	
CCCn1ccc2cc(C(=O)N3CC(N4CCN(c5ccccn5)CC4)C3)ccc21 [compound 31, 1-Propyl-5-{[3-(4-pyridin-2-ylpiperazin-1-yl)azetidin-1-yl]carbonyl}-1H-indole]	69.5%	
Cc1nc2cc(C(=O)N3CC(N4CCN(c5ncccn5)CC4)C3)ccc2n1-c1ccccc1 [compound 14, 2-Methyl-1-phenyl-5-{[3-(4-pyrimidin-2-ylpiperazin-1-yl)azetidin-1-yl]carbonyl}-1H-benzimidazole]	106%	
CC(C)n1c(C(F)(F)F)nc2cc(C(=O)N3CC(N4CCN(c5ncccn5)CC4)C3)ccc21 [compound 16, 1-(1-Methylethyl)-5-{[3-(4-pyrimidin-2-ylpiperazin-1-yl)azetidin-1-yl]carbonyl}-2-(trifluoromethyl)-1H-benzimidazole]	91.5%	
CC(C)(C)OC(=O)N1CCC(c2ccc(C(=O)N3CC(N4CCN(c5ccccn5)CC4)C3)cc2)CC1 [compound 122, tert-Butyl 4-(4-{[3-(4-pyridin-2-ylpiperazin-1-yl)azetidin-1-yl]carbonyl}phenyl)piperidine-1-carboxylate]	67.8%	
O=C(c1ccc(Cc2ccccc2)cc1)N1CC(N2CCN(c3ncccn3)CC2)C1 [compound 24, 2-(4-{1-[(4-Benzylphenyl)carbonyl]azetidin-3-yl}piperazin-1-yl)pyrimidine]	81.9%	
COc1ccc(-c2nc3cccc(C(=O)N4CC(N5CCN(c6ccccn6)CC5)C4)c3o2)cc1 [Compound #210]		Ex. 5 % MAFP @10 μM: 79.5 % MAFP
CCN(CC)c1ccc(C(=O)N2CC(N3CCN(c4ccccn4)CC3)C2)cc1 [compound 37, N,N-Diethyl-4-{[3-(4-pyridin-2-ylpiperazin-1-yl)azetidin-1-yl]carbonyl}aniline]	65.9%	Emax at 10 µM [2]: 32%
CN(C)c1ccc(C(=O)N2CC(N3CCN(c4ncccn4)CC3)C2)cc1 [compound 28, N,N-Dimethyl-4-{[3-(4-pyrimidin-2-ylpiperazin-1-yl)azetidin-1-yl]carbonyl}aniline]	82.2%	
O=C(c1ccc2nc(C3CCCCC3)oc2c1)N1CC(N2CCN(c3ncccn3)CC2)C1 [compound 10, 2-Cyclohexyl-6-{[3-(4-pyrimidin-2-ylpiperazin-1-yl)azetidin-1-yl]carbonyl}-1,3-benzoxazole]	115%	Emax at 10 µM [2]: 97.8%

Compound	Emax at 10 µM [1]	also measured
O=C(Nc1ccc(C(=O)N2CC(N3CCN(c4ccccn4)CC3)C2)cc1)C1CCCCC1 [compound 27, N-(4-{[3-(4-Pyridin-2-ylpiperazin-1-yl)azetidin-1-yl]carbonyl}phenyl)cyclohexanecarboxamide]	110%	Emax at 10 µM [2]: 66.2%
O=C(c1ccc(-c2ccccc2)c(F)c1)N1CC(N2CCN(c3ncccn3)CC2)C1 [compound 26, 2-(4-{1-[(2-Fluorobiphenyl-4-yl)carbonyl]azetidin-3-yl}piperazin-1-yl)pyrimidine]	125%	
O=C(c1ccc2nc(C3CCCCC3)oc2c1)N1CC(N2CCN(c3ccccn3)CC2)C1 [Compound #211]		Ex. 5 % MAFP @ 1 μM: 39.7 % MAFP; Ex. 5 % MAFP @10 μM: 100.8 % MAFP
O=C(c1ccc(OCc2ccccc2)cc1)N1CC(N2CCN(c3ccccn3)CC2)C1 [compound 112, 1-(1-{[4-(Benzyloxy)phenyl]carbonyl}azetidin-3-yl)-4-pyridin-2-ylpiperazine]	79.2%	
CC(C)Cc1cc2cc(C(=O)N3CC(N4CCN(c5ccccn5)CC4)C3)ccc2n1CC(C)C [Compound #212]		Ex. 5 % MAFP @10 μM: 72.9 % MAFP
N#Cc1cccnc1N1CCN(C2CN(C(=O)c3ccc(C4CCCCC4)cc3)C2)CC1 [Compound #21, 2-(4-{1-[(4-Cyclohexylphenyl)carbonyl]azetidin-3-yl}piperazin-1-yl)pyridine-3-carbonitrile]	79.5%	
O=C(c1cccc(-c2ccc(F)cc2)c1)N1CC(N2CCN(c3ccccn3)CC2)C1 [compound 52, 1-{1-[(4′-Fluorobiphenyl-3-yl)carbonyl]azetidin-3-yl}-4-pyridin-2-ylpiperazine]	52.2%	Emax at 10 µM [2]: 28%
COc1ccc(-c2ccc(C(=O)N3CC(N4CCN(c5ncccn5)CC4)C3)cc2)cc1 [compound 5, 2-(4-{1-[(4′-Methoxybiphenyl-4-yl)carbonyl]azetidin-3-yl}piperazin-1-yl)pyrimidine]	98.8%	
CN(CC1CCCCC1)c1ccc(CCC(=O)N2CC(N3CCN(c4ccccn4)CC3)C2)cc1 [compound 40, N-(Cyclohexylmethyl)-N-methyl-4-{3-oxo-3-[3-(4-pyridin-2-ylpiperazin-1-yl)azetidin-1-yl]propyl}aniline]	90.4%	Emax at 10 µM [2]: 77.3%
O=C(Cc1ccc(-c2ccccc2)cc1)N1CC(N2CCN(c3ccccn3)CC2)C1 [compound 88, 1-[1-(Biphenyl-4-ylacetyl)azetidin-3-yl]-4-pyridin-2-ylpiperazine]	2.8%	
O=C(/C=C/c1ccc(SC(F)(F)F)cc1)N1CC(N2CCN(c3ccccn3)CC2)C1 [compound 41, 1-Pyridin-2-yl-4-{1-[(2E)-3-(4-[(trifluoromethyl)sulfanyl]phenyl}prop-2-enoyl]azetidin-3-yl}piperazine]	66.8%	
O=C(c1ccc(Oc2ccccc2)cc1)N1CC(N2CCN(c3ncccn3)CC2)C1 [Compound #20, 2-(4-{1-[(4-Phenoxyphenyl)carbonyl]azetidin-3-yl}piperazin-1-yl)pyrimidine]	71.9%	
Cc1c(C(=O)N2CC(N3CCN(c4ccccn4)CC3)C2)nn(-c2ccc(Cl)cc2Cl)c1-c1ccc(Cl)cc1 [compound 39, 1-(1-{[5-(4-Chlorophenyl)-1-(2,4-dichlorophenyl)-4-methyl-1H-pyrazol-3-yl]carbonyl}azetidin-3-yl)-4-pyridin-2-ylpiperazine]		Emax at 10 µM (HeLa, read-out: Ex. 5 % MAFP @10 μM): 87.6%
O=C(c1ccc(C2CCCCC2)cc1)N1CC(N2CCN(c3nccs3)CC2)C1 [compound 6, 1-{1-[(4-Cyclohexylphenyl)carbonyl]azetidin-3-yl}-4-(1,3-thiazol-2-yl)piperazine]	41.5%	Emax at 10 µM [2]: 24.3%
CC1(C)CCC(C)(C)c2cc(CCC(=O)N3CC(N4CCN(c5ccccn5)CC4)C3)ccc21 [compound 29, 1-Pyridin-2-yl-4-{1-[3-(5,5,8,8-tetramethyl-5,6,7,8-tetrahydronaphth-2-yl)propanoyl]azetidin-3-yl}piperazine]	76.5%	
Cc1nc2cc(C(=O)N3CC(N4CCN(c5ncccn5)CC4)C3)ccc2n1C1CCCCC1 [compound 17, 1-Cyclohexyl-2-methyl-5-{[3-(4-pyrimidin-2-ylpiperazin-1-yl)azetidin-1-yl]carbonyl}-1H-benzimidazole]	83.9%	
O=C1c2ccccc2-c2ccc(C(=O)N3CC(N4CCN(c5ccccn5)CC4)C3)cc21 [compound 59, 2-{[3-(4-Pyridin-2-ylpiperazin-1-yl)azetidin-1-yl]carbonyl}-9H-fluoren-9-one]	39.7%	Emax at 10 µM [2]: 10.2%
O=C(c1ccc(-n2cccc2)cc1)N1CC(N2CCN(c3ncccn3)CC2)C1 [compound 25, 2-[4-(1-{[4-(1H-Pyrrol-1-yl)phenyl]carbonyl}azetidin-3-yl)piperazin-1-yl]pyrimidine]	87.7%	
CC(C)Cn1c(-c2ccccc2)cc2cc(C(=O)N3CC(N4CCN(c5ccccn5)CC4)C3)ccc21 [Compound #214]		Ex. 5 % MAFP @10 μM: 93.5 % MAFP
